Columns and labels:
Experiment in all cases: relative viability (nuclei count vs DMSO), 5 days (fraction); higher = more cells survive
Venetoclax + Alpelisib = compound: CC1(C)CCC(CN2CCN(c3ccc(C(=O)NS(=O)(=O)c4ccc(NCC5CCOCC5)c([N+](=O)[O-])c4)c(Oc4cnc5[nH]ccc5c4)c3)CC2)=C(c2ccc(Cl)cc2)C1 [Venetoclax] + Cc1nc(NC(=O)N2CCC[C@H]2C(N)=O)sc1-c1ccnc(C(C)(C)C(F)(F)F)c1 [Alpelisib] (partner 2 µM)
How it was run: (§1)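 Relative viability was taken as the ratio of nuclei in treated wells to nuclei in vehicle wells. Lung cancer cell lines in 1536-well plates received compounds by pin tool one day after seeding, either one drug alone or a fixed anchor-drug dose plus five library-drug doses (not always all listed) in √10 steps. Nuclei were counted on 4× images after 5 days of treatment, and values are medians of duplicate plates.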

Venetoclax + Vorinostat = compound: CC1(C)CCC(CN2CCN(c3ccc(C(=O)NS(=O)(=O)c4ccc(NCC5CCOCC5)c([N+](=O)[O-])c4)c(Oc4cnc5[nH]ccc5c4)c3)CC2)=C(c2ccc(Cl)cc2)C1 [Venetoclax] + O=C(CCCCCCC(=O)Nc1ccccc1)NO [Vorinostat] (partner 1 µM)
How it was run: as §1

Selumetinib + Dasatinib = compound: Cn1cnc2c(F)c(Nc3ccc(Br)cc3Cl)c(C(=O)NOCCO)cc21 [Selumetinib] + Cc1nc(Nc2ncc(C(=O)Nc3c(C)cccc3Cl)s2)cc(N2CCN(CCO)CC2)n1 [Dasatinib] (partner 0.075 µM)
How it was run: as §1

Selumetinib + Linsitinib = compound: Cn1cnc2c(F)c(Nc3ccc(Br)cc3Cl)c(C(=O)NOCCO)cc21 [Selumetinib] + C[C@]1(O)C[C@@H](c2nc(-c3ccc4ccc(-c5ccccc5)nc4c3)c3c(N)nccn32)C1 [Linsitinib] (partner 1 µM)
How it was run: as §1

UMC-11
relative viability (Venetoclax + Alpelisib; first compound 0.01 µM): 0.924 | relative viability (Venetoclax + Alpelisib; first compound 0.03162 µM): 1.05 | relative viability (Venetoclax + Alpelisib; first compound 0.1 µM): 0.926 | relative viability (Venetoclax + Alpelisib; first compound 0.3162 µM): 0.923 | relative viability (Venetoclax + Alpelisib; first compound 1 µM): 0.915 | relative viability (Venetoclax + Vorinostat; first compound 0.01 µM): 0.329 | relative viability (Venetoclax + Vorinostat; first compound 0.03162 µM): 0.29 | relative viability (Venetoclax + Vorinostat; first compound 0.1 µM): 0.274 | relative viability (Venetoclax + Vorinostat; first compound 0.3162 µM): 0.23 | relative viability (Venetoclax + Vorinostat; first compound 1 µM): 0.261 | relative viability (Selumetinib + Dasatinib; first compound 0.02 µM): 0.465 | relative viability (Selumetinib + Dasatinib; first compound 0.06325 µM): 0.486 | relative viability (Selumetinib + Dasatinib; first compound 0.2 µM): 0.474 | relative viability (Selumetinib + Dasatinib; first compound 0.6325 µM): 0.547 | relative viability (Selumetinib + Linsitinib; first compound 0.02 µM): 0.965 | relative viability (Selumetinib + Linsitinib; first compound 0.06325 µM): 1.08 | relative viability (Selumetinib + Linsitinib; first compound 0.2 µM): 0.972 | relative viability (Selumetinib + Linsitinib; first compound 0.6325 µM): 0.984
